How the values were obtained:
CA1 hippocampal neurons = test: 2-photon FRET cAMP imaging in acute brain slices; format: cell-based, mice; conditions: bath application 100 nM, CaMKIIα-Cre:CAMPER+/− slices
D2R [1] = conditions: cited from earlier work
D2R [2] = molecular target: D2R (Homo sapiens, UniProt P14416); format: cell-based; conditions: D2R vs D3R
Chain of D2R (Homo sapiens, UniProt P14416) (P14416 whole entry): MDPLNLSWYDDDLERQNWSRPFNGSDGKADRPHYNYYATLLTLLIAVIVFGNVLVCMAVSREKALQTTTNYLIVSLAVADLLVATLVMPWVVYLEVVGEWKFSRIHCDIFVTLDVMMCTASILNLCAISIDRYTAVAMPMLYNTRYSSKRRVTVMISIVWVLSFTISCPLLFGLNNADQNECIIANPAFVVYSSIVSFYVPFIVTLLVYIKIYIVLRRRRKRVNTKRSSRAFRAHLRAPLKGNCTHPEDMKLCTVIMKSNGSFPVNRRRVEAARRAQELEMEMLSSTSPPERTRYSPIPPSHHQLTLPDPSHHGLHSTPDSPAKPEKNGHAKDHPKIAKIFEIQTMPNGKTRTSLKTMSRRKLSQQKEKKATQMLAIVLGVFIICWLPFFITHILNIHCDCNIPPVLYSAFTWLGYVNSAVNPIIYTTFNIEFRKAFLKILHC

Row | Structure (SMILES) | agonist-induced cAMP response (CA1 hippocampal neurons) | affinity for D2R over D3R (D2R [1]) | activation of GoA via D2R compared to D3R (D2R [2])
1 | COc1ccc(OCCN2CCN(C(=O)c3cc4ccccc4[nH]3)CC2)cc1 [ML417] | increase in cAMP production | – | –
2 | CN[C@@H]1Cc2cccc3[nH]c(=O)n(c23)C1 [sumanirole] | robust inhibition of cAMP | 200 fold | five

From PMC12363792 (bioRxiv, 2025)
